Experimental data as given in patent US9980943B2, “Methods of treating muscular dystrophy” (BOARD OF REGENTS OF THE NEVADA SYSTEM OF HIGHER EDUCATION, …, priority 2013, dated 2018).

Tests used:
Type in all cases: cell-based, mouse
[1] = test system: α7 integrin (LacZ reporter in α7βgal+/− myoblasts); assay: Myoblast α7+/LacZ integrin FDG assay (Burkin assay in myoblasts, 96-well); settings: α7+/LacZ myoblasts, 96-well
[2] = test system: β-galactosidase in CMV-LacZ C2C12 myotubes; assay: CMV-LacZ secondary screen in C2C12 myotubes (β-Gal stabilizing assay); settings: C2C12 CMV-LacZ myotubes, fold relative to DMSO
Procedure, shortened: (§1)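 β-Gal level was the read-out, measured in a clonal C2C12 line expressing LacZ from a CMV promoter. Dose-response curves used six concentrations, 0.5 μM up to 40 μM, with duplicate points.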

[3] = test system: β-galactosidase in CMV-LacZ C2C12 myoblasts; assay: CMV-LacZ secondary screen in C2C12 myoblasts (β-Gal stabilizing assay); settings: CMV-LacZ C2C12 myoblasts
Procedure, shortened: as §1

[4] = test system: α7 integrin (LacZ reporter in α7+/LacZ myotubes); assay: Myotube α7 integrin FDG assay (Burkin assay in myotubes, 96-well); settings: myotubes

SMILES | Burkin Assay in Myoblasts, signal relative to DMSO ([1]; 0.5 uM) | Burkin Assay in Myoblasts, signal relative to DMSO ([1]; 1 uM) | Burkin Assay in Myoblasts, signal relative to DMSO ([1]; 5 uM) | Burkin Assay in Myoblasts, signal relative to DMSO ([1]; 10 uM) | Burkin Assay in Myoblasts, signal relative to DMSO ([1]; 20 uM) | Burkin Assay in Myoblasts, signal relative to DMSO ([1]; 40 uM) | CMV-LACZ in Myotubes, signal relative to DMSO ([2]; 0.5 uM) | CMV-LACZ in Myotubes, signal relative to DMSO ([2]; 1 uM) | CMV-LACZ in Myotubes, signal relative to DMSO ([2]; 5 uM) | CMV-LACZ in Myotubes, signal relative to DMSO ([2]; 10 uM) | CMV-LACZ in Myotubes, signal relative to DMSO ([2]; 20 uM) | CMV-LACZ in Myotubes, signal relative to DMSO ([2]; 40 uM) | CMV-LACZ in Myoblasts (β-galactosidase activity relative to DMSO) ([3]; 0.5 uM) | CMV-LACZ in Myoblasts (β-galactosidase activity relative to DMSO) ([3]; 1 uM) | CMV-LACZ in Myoblasts (β-galactosidase activity relative to DMSO) ([3]; 5 uM) | CMV-LACZ in Myoblasts (β-galactosidase activity relative to DMSO) ([3]; 10 uM) | CMV-LACZ in Myoblasts (β-galactosidase activity relative to DMSO) ([3]; 20 uM) | CMV-LACZ in Myoblasts (β-galactosidase activity relative to DMSO) ([3]; 40 uM) | Burkin Assay in Myotubes, α7 integrin LacZ reporter signal relative to DMSO ([4]; 0.5 uM) | Burkin Assay in Myotubes, α7 integrin LacZ reporter signal relative to DMSO ([4]; 1 uM) | further results
CCOc1cc(C)c(S(=O)(=O)N2CCCCC2)cc1C [MLS000693795-01] | 1.1137 | 1.242 | 1.02 | 0.9728 | 1.187 | 1.24 | 0.9771 | 1.0314 | 1.1780 | 1.0774 | 1.0453 | 1.0716 | 0.9100 | 1.1104 | 0.9554 | 0.9207 | 0.8526 | 0.8730 | 0.8397 | 0.9171 | Burkin Assay in Myotubes, α7 integrin LacZ reporter signal relative to DMSO ([4]; 5 uM): 0.9381; Burkin Assay in Myotubes, α7 integrin LacZ reporter signal relative to DMSO ([4]; 10 uM): 0.9384; Burkin Assay in Myotubes, α7 integrin LacZ reporter signal relative to DMSO ([4]; 20 uM): 1.002; Burkin Assay in Myotubes, α7 integrin LacZ reporter signal relative to DMSO ([4]; 40 uM): 0.9513
Cc1ccsc1-c1n[nH]c(=S)n1C1CCCCC1 [MLS000698617-01] | 1.008 | 1.003 | 1.06 | 0.9317 | 0.8462 | 0.8966 | 1.1221 | 1.0842 | 0.9014 | 0.9614 | 1.0011 | 1.0111 | 1.3409 | 0.9852 | 1.1399 | 1.0603 | 1.1670 | 1.0356 | 1.197 | 1.075 | Burkin Assay in Myotubes, α7 integrin LacZ reporter signal relative to DMSO ([4]; 5 uM): 1.139; Burkin Assay in Myotubes, α7 integrin LacZ reporter signal relative to DMSO ([4]; 10 uM): 0.945; Burkin Assay in Myotubes, α7 integrin LacZ reporter signal relative to DMSO ([4]; 20 uM): 1.092; Burkin Assay in Myotubes, α7 integrin LacZ reporter signal relative to DMSO ([4]; 40 uM): 0.7963
Nc1ncnc(NCc2ccccc2)c1[N+](=O)[O-] [MLS000698826-01] | 1.019 | 1.008 | 1.246 | 0.9598 | 0.9937 | 1.023 | 1.2010 | 1.0200 | 1.1232 | 0.9634 | 1.0505 | 1.0789 | 0.9942 | 0.9717 | 0.8824 | 0.9013 | 1.2944 | 1.2519 | 1.008 | 0.8718 | Burkin Assay in Myotubes, α7 integrin LacZ reporter signal relative to DMSO ([4]; 5 uM): 1.08; Burkin Assay in Myotubes, α7 integrin LacZ reporter signal relative to DMSO ([4]; 10 uM): 0.9001; Burkin Assay in Myotubes, α7 integrin LacZ reporter signal relative to DMSO ([4]; 20 uM): 0.9575; Burkin Assay in Myotubes, α7 integrin LacZ reporter signal relative to DMSO ([4]; 40 uM): 0.7844
